Source: article PMC10628300, “Dual function of OmpM as outer membrane tether and nutrient uptake channel in diderm Firmicutes” (Nature Communications, 2023)

Columns and labels:
EcOmpF = molecular target: T1, EcOmpF (Escherichia coli, UniProt P02931); assay: proteoliposome swelling, decrease in A400; assay type: biochemical; details: diffusive transport through general porin, no binding constant, 10 mM HEPES-NaOH pH 7.5, 12 mM stachyose inside
T1 construct: gene ompF; full-length, untagged (pBAD24-EcOmpF), expressed in E. coli BL21(DE3), purified from outer membranes; trimer; reconstituted in liposomes
T1 sequence (P02931 23-362): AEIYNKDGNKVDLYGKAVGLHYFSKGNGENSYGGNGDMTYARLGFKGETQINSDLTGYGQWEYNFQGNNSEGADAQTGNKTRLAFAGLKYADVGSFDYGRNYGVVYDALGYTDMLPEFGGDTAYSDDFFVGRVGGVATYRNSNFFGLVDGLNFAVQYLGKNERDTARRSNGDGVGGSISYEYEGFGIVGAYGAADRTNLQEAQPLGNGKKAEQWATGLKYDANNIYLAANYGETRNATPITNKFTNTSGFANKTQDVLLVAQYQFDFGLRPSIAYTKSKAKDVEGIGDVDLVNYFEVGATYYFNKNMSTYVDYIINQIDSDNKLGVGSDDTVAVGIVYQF

[1] = molecular target: T2, FNLLGLLA_00518 β-barrel (OmpA-like) (Veillonella parvula, UniProt A0AB38YQ02); assay: proteoliposome swelling, decrease in A400; assay type: biochemical; details: diffusive transport through channel, no binding constant; much slower than VpOmpM1 and EcOmpF; 10 mM HEPES-NaOH pH 7.5, 12 mM stachyose inside
T2 construct: gene CYJ21_000020; beta-barrel region, residues 21-200 (from plasmid name pB22-00518_21-200); TamB signal peptide and N-terminal His7; expressed in E. coli C43(DE3) delta-cyoABCD; reconstituted in liposomes

VpOmpM1 (full-length) = molecular target: T3, VpOmpM1 (full-length) (Veillonella parvula, UniProt A0A100YN03); assay: proteoliposome swelling, decrease in A400; assay type: biochemical; details: diffusive transport through general porin, no binding constant; 10 mM HEPES-NaOH pH 7.5, 12 mM stachyose inside; rates normalised to EcOmpF with arabinose
T3 construct: gene KHZ90_07665; full-length without native signal peptide; E. coli TamB signal peptide and N-terminal His7 added (pJW46); expressed in E. coli C43(DE3) delta-cyoABCD; homotrimer; reconstituted in liposomes

[2] = molecular target: VpOmpM1 (OmpM1 from Veillonella parvula), full-length, expressed in E. coli (Veillonella parvula); assay: cryo-EM structure; single particle; purified VpOmpM1 from E. coli (11.6 mg/ml) or V. parvula (8 mg/ml) in DM detergent, grids plunge-frozen at 4 °C; reconstructions without symmetry (C1) and with C3
[3] = molecular target: VpOmpM1 stalk construct (residues 22-107) (Veillonella parvula); assay: crystal structure; stalk construct 22-107 at ~20 mg/ml; 0.1 M citric acid pH 3.5, 2.0 M ammonium sulphate, 20 °C; three chains in the asymmetric unit

| Compound | proteoliposome swelling, decrease in A400 [1] | proteoliposome swelling, decrease in A400 (VpOmpM1 (full-length)) | other results |
| --- | --- | --- | --- |
| OC1OC[C@H](O)[C@H](O)[C@H]1O (some centres unmarked) [arabinose] | – | – | proteoliposome swelling, decrease in A400 (EcOmpF; reference condition to which all rates are normalised): All data were normalized to EcOmpF-containing liposome swelling in the presence of arabinose |
| NCCCCN [putrescine] | could only transport putrescine and glycine at much slower rates than VpOmpM1 and EcOmpF | VpOmpM1 could transport lactate, which is essential for V. parvula growth, and putrescine | proteoliposome swelling, decrease in A400 (EcOmpF; rates normalised to EcOmpF with arabinose): putrescine and glycine at much slower rates than VpOmpM1 and EcOmpF |
| VpOmpM1 (OmpM1 from Veillonella parvula), full-length, expressed in E. coli (natural protein) | – | – | stoichiometry N [2]: 3 |
| C[C@H](O)C(=O)O [lactate] | – | VpOmpM1 could transport lactate, which is essential for V. parvula growth, and putrescine | – |
| NCC(=O)O [glycine] | could only transport putrescine and glycine at much slower rates than VpOmpM1 and EcOmpF | – | – |
| VpOmpM1 stalk construct (residues 22-107) (domain or fragment) | – | – | stoichiometry N [3]: 3 |
